Laboratory results: patent US9688661B2, “Substituted pyrroles active as kinases inhibitors” (NERVIANO MEDICAL SCIENCES S.R.L., priority 2012, dated 2017)
pIC50: −log10 of the molar value.

Columns and labels:
[1] = test system: JAK2 dependent human megakaryoblastic leukemia cell line SET-2; experiment: Cell proliferation assay, SET-2; assay type: cell-based; conditions: SET-2 cells, 72 hours, CellTiter-Glo
[2] = target: JAK2 kinase domain (Homo sapiens (Human), UniProt O60674); experiment: Biochemical assay for inhibitors of JAK kinase activity, JAK2; conditions: JAK2 kinase domain 1 nM, 60 μM ATP
Sequence of JAK2 kinase domain (O60674 849-1124): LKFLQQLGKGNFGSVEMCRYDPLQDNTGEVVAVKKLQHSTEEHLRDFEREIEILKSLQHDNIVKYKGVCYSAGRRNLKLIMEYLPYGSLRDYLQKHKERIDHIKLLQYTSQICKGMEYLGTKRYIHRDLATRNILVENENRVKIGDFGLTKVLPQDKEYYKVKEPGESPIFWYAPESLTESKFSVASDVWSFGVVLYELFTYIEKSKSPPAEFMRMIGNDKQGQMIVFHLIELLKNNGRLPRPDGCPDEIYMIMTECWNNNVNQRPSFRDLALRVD
Protocol: (§1) Specific JAK2, JAK1 or JAK3 peptide substrates are trans-phosphorylated by JAK kinases in the presence of ATP traced with 33P-γ-ATP. At the end of the phosphorylation reaction, the unreacted ATP, cold and radioactive, is captured by an excess of dowex ion exchange resin that eventually settles by gravity to the bottom of the reaction plate. The supernatant is subsequently withdrawn and transferred into a counting plate that is then evaluated by β-counting.
(§2) 500 g of wet resin (SIGMA, custom prepared resin DOWEX 1×8 200-400 mesh, 2.5 Kg) are weighed out and diluted 2 to 1 in 150 mM sodium formate, pH 3.00. The resin is allowed to settle down overnight and then the supernatant is discarded. After three washes as above over a couple of days, the resin is allowed to settle and two volumes (with respect to the resin volume) of 150 mM sodium formate buffer are added.
(§3) Kinase buffer was composed of 50 mM HEPES pH 7.5 containing 10 mM MgCl2, 2.5 mM DTT, 10 μM Na3VO4 and 0.2 mg/mL BSA.
(§4) The peptidic substrate was purchased from American Peptide Company (Sunnyvale, Calif.).
(§5) Data are analyzed by Symix Assay Explorer software (Symix Technologies Inc.) that provides sigmoidal fitting algorithm of the 8 points dilutions curves for IC50 determination.

[3] = target: JAK1 kinase domain (Homo sapiens (Human), UniProt P23458); experiment: Biochemical assay for inhibitors of JAK kinase activity, JAK1; conditions: preactivated JAK1 kinase domain 2.5 nM, 100 μM ATP
Sequence of JAK1 kinase domain (P23458 861-1152): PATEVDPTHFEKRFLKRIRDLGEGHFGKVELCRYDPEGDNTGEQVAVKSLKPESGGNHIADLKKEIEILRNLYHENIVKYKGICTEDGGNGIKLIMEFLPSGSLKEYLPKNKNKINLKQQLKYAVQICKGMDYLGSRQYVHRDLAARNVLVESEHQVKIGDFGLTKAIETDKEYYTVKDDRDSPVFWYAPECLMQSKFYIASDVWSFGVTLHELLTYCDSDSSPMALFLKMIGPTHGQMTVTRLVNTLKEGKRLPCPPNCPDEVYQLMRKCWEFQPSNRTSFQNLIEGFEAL
Protocol: as §1, §2, §3
Assays were performed with the JAK1 kinase domain (residues 861-1152 of the 1154 amino acid long full-length sequence, accession number P23458 of UniProtKB/Swiss-Prot database).
The JAK1 kinase domain was preactivated with ATP for 1 h at 28° C. in order to obtain a linear kinetic.
as §4, §5

[4] = test system: JAK2 independent human chronic myelogenous leukaemia cell line K562; experiment: Cell proliferation assay, K562; assay type: cell-based; conditions: K562 cells, 72 hours, CellTiter-Glo, read-out: IC50 K-562
[5] = target: TYK2 kinase domain (Homo sapiens (Human), UniProt P29597); experiment: Biochemical assay for inhibitors of JAK kinase activity, TYK2; conditions: TYK2 kinase domain 3 nM, 31 μM ATP
Sequence of TYK2 kinase domain (P29597 833-1187): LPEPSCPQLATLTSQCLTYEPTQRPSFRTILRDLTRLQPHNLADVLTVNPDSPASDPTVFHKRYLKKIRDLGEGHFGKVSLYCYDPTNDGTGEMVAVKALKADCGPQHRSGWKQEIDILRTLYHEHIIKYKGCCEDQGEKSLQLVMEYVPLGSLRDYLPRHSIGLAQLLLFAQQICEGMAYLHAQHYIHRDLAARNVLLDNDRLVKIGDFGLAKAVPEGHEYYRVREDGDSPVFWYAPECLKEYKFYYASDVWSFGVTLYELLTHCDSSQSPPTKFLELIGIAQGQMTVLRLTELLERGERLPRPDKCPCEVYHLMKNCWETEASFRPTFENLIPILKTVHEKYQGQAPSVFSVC
Protocol: as §1, §2, §3, §4, §5

Row | SMILES | pIC50 [1] | pIC50 [2] | pIC50 [3] | pIC50 [4] | pIC50 [5]
1 | CCc1ccc(Cl)cc1-c1[nH]c(-c2cc(N)ncn2)cc1C#N [compd 9, 5-(6-Aminopyrimidin-4-yl)-2-(5-chloro-2-ethylphenyl)-1H-pyrrole-3-carbonitrile] | 5.90 | 7.64 | 6.85 | 5.14 | –
2 | CCc1ccc(Cl)cc1-n1cc(-c2cc(N)ncn2)cc1C#N [compd 47, 4-(6-Aminopyrimidin-4-yl)-1-(5-chloro-2-ethylphenyl)-1H-pyrrole-2-carbonitrile] | 5.51 | 7.18 | 6.06 | < 5.00 | –
3 | Cc1ccc(Cl)cc1-c1[nH]c(-c2cc(N)ncn2)cc1C(N)=O [compd 189, 5-(6-Aminopyrimidin-4-yl)-2-(5-chloro-2-methylphenyl)-1H-pyrrole-3-carboxamide] | 6.05 | 7.72 | 6.86 | < 5.00 | –
4 | CNc1cc(-c2cc(C(N)=O)c(-c3cc(Cl)ccc3C)[nH]2)ncn1 [compd 190, 2-(5-Chloro-2-methylphenyl)-5-[6-(methylamino)pyrimidin-4-yl]-1H-pyrrole-3-carboxamide] | 6.12 | 7.66 | 7.28 | < 5.00 | 7.03
5 | NC(=O)c1cc(-c2cc(N)ncn2)[nH]c1-c1cc(C(F)(F)F)ccc1Cl [compd 204, 5-(6-Aminopyrimidin-4-yl)-2-[2-chloro-5-(trifluoromethyl)phenyl]-1H-pyrrole-3-carboxamide] | 6.35 | 7.92 | 6.78 | < 5.00 | –
6 | CNc1cc(-c2cc(C(N)=O)c(-c3cc(C(F)(F)F)ccc3Cl)[nH]2)ncn1 [compd 205, 2-[2-Chloro-5-(trifluoromethyl)phenyl]-5-[6-(methylamino)pyrimidin-4-yl]-1H-pyrrole-3-carboxamide] | 6.19 | 7.72 | 6.98 | < 5.00 | –
7 | NC(=O)c1cc(-c2ncnc3[nH]ccc23)[nH]c1-c1cc(C(F)(F)F)ccc1Cl [compd 206, 2-[2-Chloro-5-(trifluoromethyl)phenyl]-5-(7H-pyrrolo[2,3-d]pyrimidin-4-yl)-1H-pyrrole-3-carboxamide] | 6.15 | 7.72 | 6.85 | < 5.00 | –
8 | Cc1ccc(C(F)(F)F)cc1-c1[nH]c(-c2cc(N)ncn2)cc1C(N)=O [compd 211, 5-(6-Aminopyrimidin-4-yl)-2-[2-methyl-5-(trifluoromethyl)phenyl]-1H-pyrrole-3-carboxamide] | 6.23 | 7.96 | 6.97 | < 5.00 | –
9 | Cc1ccc(Cl)cc1-n1cc(-c2cc(N)ncn2)cc1C(N)=O [compd 227, 4-(6-Aminopyrimidin-4-yl)-1-(5-chloro-2-methylphenyl)-1H-pyrrole-2-carboxamide] | 5.63 | 7.14 | 6.23 | < 5.00 | –
10 | CCc1ccc(Cl)cc1-n1cc(-c2cc(N)ncn2)cc1C(N)=O [compd 235, 4-(6-Aminopyrimidin-4-yl)-1-(5-chloro-2-ethylphenyl)-1H-pyrrole-2-carboxamide] | – | – | 7.10 | – | 7.49
11 | NC(=O)c1cc(-c2cc(N)ncn2)cn1-c1cc(C(F)(F)F)ccc1Cl [compd 242, 4-(6-Aminopyrimidin-4-yl)-1-[2-chloro-5-(trifluoromethyl)phenyl]-1H-pyrrole-2-carboxamide] | 5.80 | 7.15 | 5.97 | < 5.00 | –
12 | NC(=O)c1cc(-c2ncnc3[nH]cnc23)cn1-c1cc(C(F)(F)F)ccc1Cl [compd 245, 1-[2-Chloro-5-(trifluoromethyl)phenyl]-4-(9H-purin-6-yl)-1H-pyrrole-2-carboxamide] | 5.91 | 7.57 | 6.41 | < 5.00 | –
13 | NC(=O)c1cc(-c2ncnn3cccc23)cn1-c1cc(C(F)(F)F)ccc1Cl [compd 247, 1-[2-Chloro-5-(trifluoromethyl)phenyl]-4-(pyrrolo[2,1-f][1,2,4]triazin-4-yl)-1H-pyrrole-2-carboxamide] | – | – | 6.00 | – | –
14 | CCc1ccc(Cl)cc1-c1[nH]c(-c2ncnc3[nH]ccc23)cc1C(=O)NC [compd 303, 2-(5-Chloro-2-ethylphenyl)-N-methyl-5-(7H-pyrrolo[2,3-d]pyrimidin-4-yl)-1H-pyrrole-3-carboxamide] | 6.85 | 9.00 | – | 5.42 | 7.92
15 | CNC(=O)c1cc(-c2ncnc3[nH]ccc23)[nH]c1-c1cc(C(F)(F)F)ccc1C [compd 318, 2-[2-Methyl-5-(trifluoromethyl)phenyl]-N-methyl-5-(7H-pyrrolo[2,3-d]pyrimidin-4-yl)-1H-pyrrole-3-carboxamide] | 6.46 | 7.60 | 7.20 | < 5.00 | –

Now from value to compound:

Row | pIC50 [1] | pIC50 [2] | pIC50 [3] | pIC50 [4] | pIC50 [5] | SMILES
16 | 5.86 | 8.40 | 7.82 | 5.72 | 7.89 | Cc1ccc(Cl)cc1-n1cc(-c2ncnc3[nH]ccc23)cc1C#N [compd 63, 1-(5-Chloro-2-methylphenyl)-4-(7H-pyrrolo[2,3-d]pyrimidin-4-yl)-1H-pyrrole-2-carbonitrile]
17 | 6.29 | 8.15 | 7.77 | 5.18 | 7.42 | N#Cc1cc(-c2ncnc3[nH]ccc23)cn1-c1cc(C(F)(F)F)ccc1Cl [compd 72, 1-[2-Chloro-5-(trifluoromethyl)phenyl]-4-(7H-pyrrolo[2,3-d]pyrimidin-4-yl)-1H-pyrrole-2-carbonitrile]
18 | 6.34 | 8.30 | 7.48 | 5.42 | 7.64 | Cc1ccc(Cl)cc1-c1cc(-c2ncnc3[nH]ccc23)[nH]c1C(N)=O [compd 123, 3-(5-Chloro-2-methylphenyl)-5-(7H-pyrrolo[2,3-d]pyrimidin-4-yl)-1H-pyrrole-2-carboxamide]
19 | 6.16 | 8.05 | 7.42 | < 5.00 | 7.15 | CNC(=O)c1[nH]c(-c2ncnc3[nH]ccc23)cc1-c1cc(Cl)ccc1C [compd 129, 3-(5-Chloro-2-methylphenyl)-N-methyl-5-(7H-pyrrolo[2,3-d]pyrimidin-4-yl)-1H-pyrrole-2-carboxamide]
20 | 6.32 | 8.05 | 7.60 | 5.55 | 7.06 | CCc1ccc(C(F)(F)F)cc1-c1cc(-c2ncnc3[nH]ccc23)[nH]c1C(=O)NC [compd 131, 3-[2-Ethyl-5-(trifluoromethyl)phenyl]-N-methyl-5-(7H-pyrrolo[2,3-d]pyrimidin-4-yl)-1H-pyrrole-2-carboxamide]
21 | 6.16 | 9.00 | 7.70 | < 5.00 | 8.15 | Cc1ccc(Cl)cc1-c1[nH]c(-c2ncnc3[nH]ccc23)cc1C(N)=O [compd 191, 2-(5-Chloro-2-methylphenyl)-5-(7H-pyrrolo[2,3-d]pyrimidin-4-yl)-1H-pyrrole-3-carboxamide]
22 | 6.34 | 7.68 | 7.32 | < 5.00 | – | CNc1cc(-c2cc(C(N)=O)c(-c3cc(C(F)(F)F)ccc3C)[nH]2)ncn1 [compd 212, 5-[6-(Methylamino)pyrimidin-4-yl]-2-[2-methyl-5-(trifluoromethyl)phenyl]-1H-pyrrole-3-carboxamide]
